According to patent US8658568B2, “6-amino-2-substituted-5-vinylsilylpyrimidine-4-carboxylic acids and esters and 4-amino-6-substituted-3-vinylsilylpyridine-2-carboxylic acids and esters as herbicides” (Dow AgroSciences, LLC., priority 2011, dated 2014):

Legend:
[1] = tested on: ABUTH = velvetleaf (Abutilon theophrasti); assay: Postemergence herbicidal activity, velvetleaf; type: in vivo; details: post-emergence, 336 h, post-emergent, rate 140 g ai/ha, visual score after 14 days (0 no injury, 100 complete kill), read-out: % Growth Reduction ABUTH
Protocol: (§1) Evaluation of Postemergence Herbicidal Activity
(§2) Seeds or nutlets of the desired test plant species were planted in Sun Gro MetroMix® 306 planting mixture, which typically has a pH of 6.0 to 6.8 and an organic matter content of about 30 percent, in plastic pots with a surface area of 64 square centimeters. When required to ensure good germination and healthy plants, a fungicide treatment and/or other chemical or physical treatment was applied. The plants were grown for 7-21 days in a greenhouse with an approximate 15 hour photoperiod which was maintained at about 23-29° C. during the day and 22-28° C. during the night. Nutrients and water were added on a regular basis and supplemental lighting was provided with overhead metal halide 1000-Watt lamps as necessary. The plants were employed for testing when they reached the first or second true leaf stage.
(§3) A weighed amount, determined by the highest rate to be tested, of each test compound was placed in a 25 mL glass vial and was dissolved in 4 mL of a 97:3 v/v (volume/volume) mixture of acetone and dimethyl sulfoxide (DMSO) to obtain concentrated stock solutions. […] The concentrated stock solutions obtained were diluted with 20 mL of an aqueous mixture containing acetone, water, isopropyl alcohol, DMSO, Atplus 411F crop oil concentrate, and Triton® X-155 surfactant in a 48.5:39:10:1.5:1.0:0.02 v/v ratio to obtain spray solutions containing the highest application rates. Additional application rates were obtained by serial dilution of 12 mL of the high rate solution into a solution containing 2 mL of 97:3 (v/v) mixture of acetone and dimethyl sulfoxide (DMSO) and 10 mL of an aqueous mixture containing acetone, water, isopropyl alcohol, DMSO, Atplus 411F crop oil concentrate, and Triton X-155 surfactant in a 48.5:39:10:1.5:1.0:0.02 (v/v) ratio to obtain 1/2 ×, 1/4 ×, 1/8× and 1/16× rates of the high rate. Compound requirements are based upon a 12 mL application volume at a rate of 187 L/ha. Formulated compounds were applied to the plant material with an overhead Mandel track sprayer equipped with a 8002E nozzles calibrated to deliver 187 L/ha over an application area of 0.503 square meters at a spray height of 18 inches (43 cm) above the average plant canopy height. Control plants were sprayed in the same manner with the solvent blank.
(§4) The treated plants and control plants were placed in a greenhouse as described above and watered by sub-irrigation to prevent wash-off of the test compounds. After 14 days, the condition of the test plants as compared with that of the untreated plants was determined visually and scored on a scale of 0 to 100 percent where 0 corresponds to no injury and 100 corresponds to complete kill
(§5) By applying the well-accepted probit analysis as described by J. Berkson in Journal of the […], 48, 565 (1953) and by D. Finney in “Probit Analysis” Cambridge University Press (1952), the above data can be used to calculate GR50 and GR80 values, which are defined as growth reduction factors that correspond to the effective dose of herbicide required to kill or control 50 percent or 80 percent, respectively, of a target plant.

[2] = tested on: ECHCG = barnyardgrass (Echinochloa crus-galli); assay: Postemergence herbicidal activity, barnyardgrass; type: in vivo; details: post-emergence, 336 h, post-emergent, rate 140 g ai/ha, visual score after 14 days (0 no injury, 100 complete kill), read-out: % Growth Reduction ECHCG
Protocol: as §1, §2, §3, §4, §5

[3] = tested on: AMARE = redroot pigweed (Amaranthus retroflexus); assay: Postemergence herbicidal activity, redroot pigweed; type: in vivo; details: post-emergence, 336 h, post-emergent, rate 140 g ai/ha, visual score after 14 days (0 no injury, 100 complete kill), read-out: % Growth Reduction AMARE
Protocol: as §1, §2, §3, §4, §5

[4] = tested on: CHEAL = lambsquarters (Chenopodium album); assay: Postemergence herbicidal activity, lambsquarters; type: in vivo; details: post-emergence, 336 h, post-emergent, rate 140 g ai/ha, visual score after 14 days (0 no injury, 100 complete kill), read-out: % Growth Reduction CHEAL
Protocol: as §1, §2, §3, §4, §5

[5] = tested on: IPOHE = ivyleaf morningglory (Ipomoea hederacea); assay: Postemergence herbicidal activity, ivyleaf morningglory; type: in vivo; details: post-emergence, 336 h, post-emergent, rate 140 g ai/ha, visual score after 14 days (0 no injury, 100 complete kill), read-out: % Growth Reduction IPOHE
Protocol: as §1, §2, §3, §4, §5

[6] = tested on: HELAN = sunflower (Helianthus annuus); assay: Postemergence herbicidal activity, sunflower; type: in vivo; details: post-emergence, 336 h, post-emergent, rate 140 g ai/ha, visual score after 14 days (0 no injury, 100 complete kill), read-out: % Growth Reduction HELAN
Protocol: as §1, §2, §3, §4, §5

[7] = tested on: EPHHL = wild poinsettia (Euphorbia heterophylla); assay: Postemergence herbicidal activity, wild poinsettia; type: in vivo; details: post-emergence, 336 h, post-emergent, rate 140 g ai/ha, visual score after 14 days (0 no injury, 100 complete kill), read-out: % Growth Reduction EPHHL
Protocol: as §1, §2, §3, §4, §5

SMILES: COc1c(Cl)ccc(-c2nc(N)c(/C=C/[Si](C)(C)C)c(C(=O)O)n2)c1F [Compound 6, (E)-6-amino-2-(4-chloro-2-fluoro-3-methoxyphenyl)-5-(2-(trimethylsilyl)vinyl)pyrimidine-4-carboxylicacid]
- pest or weed control at 140 g/ha [1]: 100%
- melting point: 108 to 110 °C
- pest or weed control at 140 g/ha [2]: 100%
- pest or weed control at 140 g/ha [3]: 100%
- pest or weed control at 140 g/ha [4]: 100%
- pest or weed control at 140 g/ha [5]: 95%
- pest or weed control at 140 g/ha [6]: 100%
- pest or weed control at 140 g/ha [7]: 100%

SMILES: COC(=O)c1nc(-c2ccc(Cl)cc2)c(F)c(N)c1/C=C/[Si](C)(C)C [Compound 12, (E)-Methyl 4-amino-6-(4-chlorophenyl)-5-fluoro-3-(2-(trimethylsilyl)vinyl)picolinate]
- pest or weed control at 140 g/ha [1]: 90%
- melting point: 113 to 115 °C
- pest or weed control at 140 g/ha [2]: 0%
- pest or weed control at 140 g/ha [3]: 75%
- pest or weed control at 140 g/ha [4]: 100%
- pest or weed control at 140 g/ha [5]: 0%
- pest or weed control at 140 g/ha [6]: 90%
- pest or weed control at 140 g/ha [7]: 80%
